Data from PMC7734623 (Antiviral chemistry & chemotherapy, 2012).
Converted amounts (≈) assume the structure as drawn. Structures can show the parent of a compound that is named as a salt. Where two headings read alike, the source gives them in different places.

What was measured:
[1] = test system: severe acute respiratory syndrome (SARS) coronavirus (strain Urbani); assay: microbe, parasite or virus in culture; format: cell-based
in vitro [2] = settings: African green monkey
HIV-1LAI = assay: HIV-1 replication reverse transcriptase assay in PBMC; format: cell-based, HIV type-1; settings: for anti-HIV-1 activity (in words): HIV-1LAI in human PBMC
in vitro [3] = settings: human
[4] = test system: primary human peripheral blood mononuclear cells
[5] = test system: primary human peripheral blood mononuclear cells; assay: Cytotoxicity on PBMCs; settings: for CC50: experiment 1, PBMC
[6] = Hydrolytic stability of DMSO stock solution under freezing–; settings: multiple freezing–(re-thawing) cycles
[7] = test system: Madin–Darby canine kidney (MDCK) cells; settings: A/duck/Minnesota/1525/81 test
[8] = test system: A/California/07/2009 (pandemic swine-origin H1N1); assay: microbe, parasite or virus in culture; format: cell-based, Influenza A virus (H1N1)
[9] = test system: human parainfluenza virus type 3 (isolate 14702); assay: microbe, parasite or virus in culture; format: cell-based
[10] = test system: Vero 76 African green monkey kidney epithelial cells
[11] = test system: A/Perth/16/2009 (seasonal H3N2); assay: microbe, parasite or virus in culture; format: cell-based, Influenza A virus (H3N2)
[12] = test system: A/duck/Minnesota/1525/81 (low pathogenic avian influenza H5N1); assay: microbe, parasite or virus in culture; format: cell-based, Influenza A virus (H5N1 low pathogenic)
[13] = test system: MA-104 embryonic African green monkey kidney epithelial cells
B/Florida/4/2006 = assay: microbe, parasite or virus in culture; format: cell-based, Influenza B virus
[14] = test system: A/Vietnam/1203/2004 (highly pathogenic avian influenza H5N1); assay: microbe, parasite or virus in culture; format: cell-based, Influenza A virus (H5N1 highly pathogenic)
in vitro [15] = settings: dog
in vitro [16] = settings: African green monkey; remark: listed apart in the source
[17] = Human immunodeficiency virus 1, PBMC, experiment 1, PBMC, 9: fresh DMSO stock
[18] = Human immunodeficiency virus 1, PBMC, experiment 2, PBMC, 9: fresh DMSO stock
[19] = experiment 1, PBMC, 9: fresh DMSO stock
[20] = experiment 1, PBMC, RT activity in supernatant, 9: fresh DMSO stock
[21] = experiment 2, PBMC, 9: fresh DMSO stock
[22] = experiment 1, DMSO stock after second FRC

Work on `CC(C)C[C@H](NC(=O)OCc1ccccc1)C(=O)NC(CCC(=O)N(C)C)C(=O)CF` (mixture of isomers) [EP128533, (4RS)-4-[N-(benzyloxycarbonyl)-L-leucylamino]-6-fluoro-5-oxohexanoic acid N,N-dimethylamide, reference compound] yielded an EC50 ([1]; Severe acute respiratory syndrome-related coronavirus, Vero 76) of 1.3 µg/mL and a CC50 (in vitro [2]) of over 100 µg/mL.
For `NC12CC3CC(CC(C3)C1)C2` [1 ×HCl, 1-Adamantanammonium chloride, reference compound], the “anti-HIV-1 activity (in words)” value (HIV-1LAI) was “did not show any anti-HIV-1 activity”, the EC90 (HIV-1LAI; [17]) was over 100 µM and the “SI50 (selectivity index CC50/EC50)” value (HIV-1LAI; experiment 1) was over 1.1. For the same molecule, the CC50 (in vitro [3]) was over 100 µM.
`Cc1cn([C@H]2C[C@H](N=[N+]=[N-])[C@@H](CO)O2)c(=O)[nH]c1=O` [AZT, 3′-azido-3′-deoxythymidine, reference compound] gave an EC90 (HIV-1LAI; [17]) of 0.031 µM, an EC50 (HIV-1LAI; [18]) of 0.0091 µM and an EC90 (HIV-1LAI; [18]) of 0.047 µM. For the same molecule, the “SI50 (selectivity index CC50/EC50)” value (HIV-1LAI; experiment 1) was >22,727, the “SI50 (selectivity index CC50/EC50)” value (HIV-1LAI; experiment 2) was >10,989 and the CC50 (in vitro [3]) was over 100 µM. For the same molecule, the CC50 ([4]; human) was over 100 µM.
In the case of `CC(=NC12CC3CC(CC(C3)C1)C2)c1ccc(F)cc1` [Compound 4, 1-(4-Fluorophenyl)ethanone – tricyclo[3.3.1.1^3,7]dec-1-ylazanylidene (1:1)], the “anti-HIV-1 activity (in words)” value (HIV-1LAI) is reported as “did not show any anti-HIV-1 activity”, the EC90 (HIV-1LAI; [19]) is reported as over 100 µM and the EC50 (HIV-1LAI; [20]) is reported as over 100 µM. It also gave a CC50 [4] of over 100 µM.
For `Nc1nc2ncc(CNc3ccc(C(=O)N[C@@H](CCC(=O)O)C(=O)O)cc3)nc2c(=O)[nH]1.O.O` [Compound 8, L-folic acid dihydrate, reference compound], the “anti-HIV-1 activity (in words)” value (HIV-1LAI) was “did not show any anti-HIV-1 activity”, the EC50 (HIV-1LAI; [21]) was over 100 µM and the EC90 (HIV-1LAI; [21]) was over 100 µM. For the same molecule, the “toxicity in PBMC (in words)” value [5] was “exhibited toxicity” and the CC50 [5] was 25.7 µM.
With `O=C([O-])CC[C@H](NC(=O)c1ccc(NCc2cnc3nc([N-]c4nc5ncc(CNc6ccc(C(=O)N[C@@H](CCC(=O)[O-])C(=O)[O-])cc6)nc5c(=O)[nH]4)[nH]c(=O)c3n2)cc1)C(=O)[O-].[Na+].[Na+].[Na+].[Na+].[Na+]` [Compound 10, Pentasodium (2S,2′S)-2,2′-{azanidediylbis[(4-{[(4-oxo-3,4-dihydropteridine-2,6-diyl)methyl]amino}benzoyl)amino]}dipentanedioate×3 H2O×2.5 acetone] the “anti-HIV-1 activity (in words)” value (HIV-1LAI) was “did not show any anti-HIV-1 activity”, the EC90 (HIV-1LAI; [19]) was over 100 µM and the EC50 (HIV-1LAI; [20]) was over 100 µM. The CC50 [5] was over 100 µM.
In the case of `Nc1nc2ncc(CNc3ccc(C(=O)N[C@@H](CCC(=O)[O-])C(=O)[O-])cc3)nc2c(=O)[nH]1.O.O.O.O.[Na+].[Na+]` [Compound 11, Disodium (2S)-2-(pteroylamino)pentanedioate×4 H2O], the “anti-HIV-1 activity (in words)” value (HIV-1LAI) is reported as “did not show any anti-HIV-1 activity”, the EC90 (HIV-1LAI; [19]) is reported as over 100 µM and the EC50 (HIV-1LAI; [20]) is reported as over 100 µM. For the same molecule, the CC50 [4] was over 100 µM.
In the case of `Cl.O=C(CNC12CC3CC(CC(C3)C1)C2)c1ccc(F)cc1` [Compound 12, 1-(4-Fluorophenyl)-2-(tricyclo[3.3.1.1^3,7]dec-1-ylamino) ethanone hydrochloride×0.11 H2O], the “activity of DMSO stock solution during multiple FRCs (in words)” value [6] is reported as “did not lose activity”, the CC50 [7] is reported as 35 µg/mL and the EC50 [8] is reported as over 36 µg/mL. For the same molecule, the “inhibition of virus replication (in words)” value (“inhibition” for short) [8] was “inactive”, the EC50 [9] was over 49 µg/mL and the “inhibition” value [9] was “did not inhibit”. The “anti-HIV-1 activity (in words)” value (HIV-1LAI) was “did not show any anti-HIV-1 activity”, the EC90 (HIV-1LAI; [19]) was over 100 µM and the EC50 (HIV-1LAI; [20]) was over 100 µM. The CC50 [10] was over 100 µg/mL, the EC50 [11] was over 37 µg/mL and the “inhibition” value [11] was “inactive”. For the same molecule, the “inhibition” value ([12]; A/duck/Minnesota/1525/81 (H5N1), amantadine-susceptible) was “did inhibit”, the EC50 ([12]; A/duck/Minnesota/1525/81, MDCK (25 CCID50), neutral red) was 0.95 µg/mL and the EC50 ([12]; low pathogenic H5N1 A/duck/Minnesota/1525/81) was 2.92 µM. The CC50 [13] was 49 µg/mL, the EC50 (B/Florida/4/2006) was over 50 µg/mL and the “inhibition” value (B/Florida/4/2006) was “inactive”. For the same molecule, the CC50 [4] was over 100 µM, the “inhibition” value ([1]; SARS coronavirus) was “did not inhibit” and the EC50 ([1]; Urbani, Vero 76 (130 CCID50), neutral red) was 92 µg/mL. For the same molecule, the “inhibition” value ([14]; A/Vietnam/1203/2004) was “inactive” and the EC50 ([14]; A/Vietnam/1203/2004, MDCK (≤42 CCID50), neutral red) was 50 µg/mL.
Molecule `CCC(CC)O[C@@H]1C=C(C(=O)O)C[C@H](N)[C@H]1NC(C)=O` [oseltamivir carboxylate, (3R,4R,5S)-4-(acetylamino)-5-amino-3-(pentan-3-yloxy)cyclohex-1-ene-1-carboxylic acid, reference compound] has a CC50 (in vitro [15]) of over 10 µg/mL and an EC50 ([12]; Influenza A virus, H5N1, MDCK) of 0.061 µg/mL.
For `NC(=O)c1ncn([C@@H]2O[C@H](CO)[C@@H](O)[C@H]2O)n1` [ribavirin, 1-β-D-ribofuranosyl-1H-1,2,4-triazole-3-carboxamide, reference compound], the EC50 ([8]; Influenza A virus, H1N1, MDCK) was 4.2 µg/mL (≈ 17.2 µM), the EC50 ([9]; Human respirovirus 3, MA104) was 14 µg/mL (≈ 57.3 µM) and the CC50 (in vitro [15]) was over 100 µg/mL. For the same molecule, the EC50 ([11]; Influenza A virus, H3N2, MDCK) was 2.9 µg/mL (≈ 11.9 µM), the EC50 ([12]; Influenza A virus, H5N1, MDCK) was 5.4 µg/mL and the EC50 (B/Florida/4/2006; Influenza B virus, MDCK) was 3.9 µg/mL (≈ 16 µM). The CC50 (in vitro [16]) was 190 µg/mL (≈ 778 µM) and the EC50 ([14]; Influenza A virus, H5N1, MDCK) was 9.4 µg/mL (≈ 38.5 µM).
With “[1,4-Bis(4-hydroxyphenyl)butane-1,4-dione – 1,4-bis(4-methoxyphenyl)butane-1,4-dione (7) – (2S,2′S)-2,2′-{[(tricyclo[3.3.1.1^3,7]dec-1-ylamino)methanediyl] bis(pteroylimino)}dipentanedioic acid (0.2:1:1)]×3 H2O×0.4 acetone [Compound 9]” the “antiretroviral activity after first FRC (in words)” value (HIV-1LAI; DMSO stock after first FRC) was “seriously affected”, the “antiretroviral activity after second FRC (in words)” value (HIV-1LAI; DMSO stock after second FRC) was “completely lost” and the “anti-HIV-1 activity (in words)” value (HIV-1LAI) was “effective inhibitor”. The EC90 (HIV-1LAI; experiment 1, DMSO stock after first FRC) was 57.7 µM, the EC50 (HIV-1LAI; experiment 1, DMSO stock after first freezing-(re-thawing) cycle (FRC)) was 32.7 µM and the EC50 (HIV-1LAI; [22]) was over 100 µM. For the same molecule, the EC90 (HIV-1LAI; [22]) was over 100 µM, the EC90 (HIV-1LAI; [19]) was 34.2 µM and the EC50 (HIV-1LAI; [20]) was 3.5 µM. The EC50 (HIV-1LAI; [21]) was 10.8 µM and the EC90 (HIV-1LAI; [21]) was 34.8 µM.
